According to patent US11351178B2, “Selective HDAC6 inhibitors” (ITALFARMACO S.P.A., priority 2017, dated 2022):
Like-named read-outs stand apart in the source and are kept apart here.

Columns and labels:
[1] = Stability to Phase I metabolism in rat S9 liver fraction; assay type: in vitro ADME; conditions: after 90 min, 37° C.
Summary of the method: (§1)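 Phase I stability in human and rat hepatic S9 at 37 °C, sampled up to 90 min. Samples were stopped with acidified acetonitrile on ice, then quantified by HPLC-UV or LC-MS/MS.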

Stability in rat plasma = assay type: in vitro ADME; conditions: after 4 hours, 37° C.
Summary of the method: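 Compounds incubated at 37° C in rat or human plasma at 50 μM (UV/HPLC) or 1 or 2 μM (LC-MS/MS) for 0–4 h. Reaction stopped with acidified acetonitrile on ice; percent remaining versus initial amount and plasma half-life calculated.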

HDAC9 = target: T1, HDAC9 (Homo sapiens, UniProt Q9UKV0); assay: Enzymatic test HDAC9; assay type: biochemical; conditions: Table 3
T1 construct: purchased BPS 50009
Protocol: After a period of incubation at 30° C. (incubation times vary for different isoforms and are shown in table 1) 25 μL of solution containing the substrate were added. As substrate, FLUOR DE LYS® deacetylase substrate (Enzo Life Sciences, cat #BML-K1104, FdL), FLUOR DE LYS®-Green substrate (Enzo Life Sciences, cat #BML-K1572 FdL_G) and trifluoroacetyl-L-lysine (Tfal)-2× concentrated solution in 25 mM Tris-HCl, pH 8, 130 mM NaCl 0.05% Tween-20 10% glycerol) were used. Following a reaction period at 30° C.

[2] = Stability to Phase I metabolism in human S9 liver fraction; assay type: in vitro ADME
Summary of the method: as §1

[3] = test system: peripheral blood mononuclear cells (PBMCs); assay: Cytotoxicity on PBMCs (CellTiter 96); assay type: cell-based; conditions: PBMC, 72 h; read-out: PBMC TOXICITY (72 h)
Summary of the method: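 Mitochondrial-function readout (CellTiter 96 Aqueous One) after 72 h compound exposure, begun 24 h post-seeding. Dose ranges: 697 cells, 1 to 10000 nM at 2×10^4 cells/well; PBMCs, 1.5 to 10000 nM at 5×10^5 cells/well.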

recombinant human HDAC6 = target: T2, recombinant human HDAC6 (Homo sapiens, UniProt Q9UBN7); assay: Enzymatic screening on recombinant human HDAC6; assay type: biochemical; conditions: read-out: HDAC6 IC50
T2 sequence (Q9UBN7 1-1215): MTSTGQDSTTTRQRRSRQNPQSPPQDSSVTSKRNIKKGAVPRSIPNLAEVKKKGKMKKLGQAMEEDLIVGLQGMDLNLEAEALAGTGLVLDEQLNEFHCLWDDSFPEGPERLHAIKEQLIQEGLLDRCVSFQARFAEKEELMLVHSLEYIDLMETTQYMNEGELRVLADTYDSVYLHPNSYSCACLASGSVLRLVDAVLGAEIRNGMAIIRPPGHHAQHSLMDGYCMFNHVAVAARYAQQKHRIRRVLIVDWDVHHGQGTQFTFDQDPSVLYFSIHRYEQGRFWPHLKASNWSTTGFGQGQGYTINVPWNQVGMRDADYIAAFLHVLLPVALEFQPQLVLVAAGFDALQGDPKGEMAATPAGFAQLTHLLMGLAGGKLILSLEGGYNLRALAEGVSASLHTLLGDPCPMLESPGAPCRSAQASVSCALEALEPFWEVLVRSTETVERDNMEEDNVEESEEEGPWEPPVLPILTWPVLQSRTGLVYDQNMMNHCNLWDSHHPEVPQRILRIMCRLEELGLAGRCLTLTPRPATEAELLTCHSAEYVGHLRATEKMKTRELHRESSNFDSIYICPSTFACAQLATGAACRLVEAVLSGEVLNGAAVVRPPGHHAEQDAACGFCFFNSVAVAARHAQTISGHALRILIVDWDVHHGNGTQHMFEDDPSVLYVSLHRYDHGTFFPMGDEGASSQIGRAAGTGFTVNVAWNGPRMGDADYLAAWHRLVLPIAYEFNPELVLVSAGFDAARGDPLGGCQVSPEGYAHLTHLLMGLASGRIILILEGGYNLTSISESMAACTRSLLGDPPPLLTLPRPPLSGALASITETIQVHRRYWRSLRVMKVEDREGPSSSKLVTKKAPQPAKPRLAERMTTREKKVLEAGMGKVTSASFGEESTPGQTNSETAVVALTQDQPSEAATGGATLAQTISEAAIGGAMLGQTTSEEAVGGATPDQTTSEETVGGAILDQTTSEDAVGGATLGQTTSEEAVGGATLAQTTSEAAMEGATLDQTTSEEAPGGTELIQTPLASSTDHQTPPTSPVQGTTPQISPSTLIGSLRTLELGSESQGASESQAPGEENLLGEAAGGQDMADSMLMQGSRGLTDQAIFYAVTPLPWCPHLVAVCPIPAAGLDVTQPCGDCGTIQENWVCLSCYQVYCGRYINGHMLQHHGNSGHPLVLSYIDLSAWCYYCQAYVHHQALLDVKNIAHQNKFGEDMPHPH
Summary of the method: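 Recombinant human enzyme was incubated with compound at 30 °C for an isoform-dependent time, then substrate (FLUOR DE LYS, FLUOR DE LYS-Green or trifluoroacetyl-L-lysine) was added as a 2× solution in 25 mM Tris-HCl pH 8, 130 mM NaCl, 0.05% Tween-20, 10% glycerol. The deacetylation reaction then proceeded at 30 °C.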

[4] = human liver S9 fraction, after 90 min, 37° C.

T1 sequence (Q9UKV0 1-1066 isoform Q9UKV0-5): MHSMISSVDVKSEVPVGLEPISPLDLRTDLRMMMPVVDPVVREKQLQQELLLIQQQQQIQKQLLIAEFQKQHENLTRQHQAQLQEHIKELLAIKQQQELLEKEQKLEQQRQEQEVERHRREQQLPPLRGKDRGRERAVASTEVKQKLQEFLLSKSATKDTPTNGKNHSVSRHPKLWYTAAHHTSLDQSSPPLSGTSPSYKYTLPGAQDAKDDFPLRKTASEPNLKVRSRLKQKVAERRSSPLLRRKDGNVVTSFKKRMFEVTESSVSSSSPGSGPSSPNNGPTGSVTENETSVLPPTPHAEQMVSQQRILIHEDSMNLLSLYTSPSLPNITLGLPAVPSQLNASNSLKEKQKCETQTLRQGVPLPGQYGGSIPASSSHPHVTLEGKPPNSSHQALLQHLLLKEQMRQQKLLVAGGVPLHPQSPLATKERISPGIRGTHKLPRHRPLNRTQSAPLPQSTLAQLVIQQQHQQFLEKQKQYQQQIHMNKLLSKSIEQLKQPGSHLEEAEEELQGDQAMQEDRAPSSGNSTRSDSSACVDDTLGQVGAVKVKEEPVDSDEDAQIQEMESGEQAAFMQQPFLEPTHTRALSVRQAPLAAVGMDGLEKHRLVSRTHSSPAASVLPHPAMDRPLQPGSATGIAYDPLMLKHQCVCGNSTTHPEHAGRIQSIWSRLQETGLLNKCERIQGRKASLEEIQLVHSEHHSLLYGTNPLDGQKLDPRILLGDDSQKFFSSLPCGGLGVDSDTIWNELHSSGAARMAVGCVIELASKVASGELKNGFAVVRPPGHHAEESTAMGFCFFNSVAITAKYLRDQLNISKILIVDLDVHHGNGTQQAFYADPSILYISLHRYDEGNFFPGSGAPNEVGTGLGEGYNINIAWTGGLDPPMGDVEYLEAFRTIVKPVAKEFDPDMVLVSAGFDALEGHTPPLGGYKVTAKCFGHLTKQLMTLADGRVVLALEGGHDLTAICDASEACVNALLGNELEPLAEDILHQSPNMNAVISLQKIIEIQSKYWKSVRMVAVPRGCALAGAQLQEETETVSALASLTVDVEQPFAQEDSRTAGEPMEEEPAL

SMILES | residual percentage in rat S9 fraction [1] [%] | residual percentage in rat plasma (Stability in rat plasma) [%] | IC50 (HDAC9) [nM] | residual percentage in human S9 fraction ([2]; human, 90 min, pH 7.4) [%] | IC50 [3] [nM] | IC50 (recombinant human HDAC6; Table 2) [nM] | IC50 (recombinant human HDAC6; Table 3) [nM] | residual percentage in human S9 fraction [2, 4] [%]
COc1ccc(C(=O)N[C@@H](Cc2cscn2)c2nc(Cc3ccc(C(=O)NO)cc3)no2)cc1OC [comp. 1, (S)—N-(1-(3-(4-(hydroxycarbamoyl)benzyl)-1,2,4-oxadiazol-5-yl)-2-(thiazol-4-yl)ethyl)-3,4-dimethoxybenzamide] | 70 | 86 | 5870 | 81 | 7000 | 81 | 81 | 
Cn1c(Sc2c(F)cc(C(=O)NO)cc2F)nnc1-c1cccc2ccccc12 [comp. 2, 3,5-difluoro-N-hydroxy-4-((4-methyl-5-(naphthalen-1-yl)-4H-1,2,4-triazol-3-yl)thio)benzamide] | 1 | 79 | 592 | 78 | > 1000 | 16 | 16 | 
O=C(NO)c1cc(F)c(Cn2nnc(-c3ccccn3)n2)c(F)c1 [comp. 6, 3,5-difluoro-N-hydroxy-4-((5-(pyridin-2-yl)-2H-tetrazol-2-yl)methyl)benzamide] | 96.6 | 87 | 756 |  | 20000 | 7 | 7 | 85.6
Cn1c(Sc2ccc(C(=O)NO)cc2)nnc1-c1cccs1 [comp. 10, N-hydroxy-4-((4-methyl-5-(thiophen-2-yl)-4H-1,2,4-triazol-3-yl)thio)benzamide] | 82 | 86 | 1080 |  | 4500 | 8 | 9 | 95
O=C(NO)c1cc(F)c(Cn2nnnc2-c2ccccn2)c(F)c1 [comp. 13, 3,5-difluoro-N-hydroxy-4-((5-(pyridin-2-yl)-1H-tetrazol-1-yl)methyl)benzamide] | 90.9 | 96.7 | 640 | 98 |  | 4 | 4 | 
O=C(NO)c1cc(F)c(Cn2nnnc2-c2cccs2)c(F)c1 [comp. 15, 3,5-difluoro-N-hydroxy-4-((5-(thiophen-2-yl)-1H-tetrazol-1-yl)methyl)benzamide] | 60 | 78 | 659 | 83 | > 10000 | 19 | 19 | 
Cn1c(Sc2c(F)cc(C(=O)NO)cc2F)nnc1-c1cccs1 [comp. 17, 3,5-difluoro-N-hydroxy-4-((4-methyl-5-(thiophen-2-yl)-4H-1,2,4-triazol-3-yl)thio)benzamide] | 71 | 87 | 496 |  | 9000 | 9 | 9 | 83
O=C(NO)c1cc(F)c(Cn2nnc(-c3ccco3)n2)c(F)c1 [comp. 19, 3,5-difluoro-4-((5-(furan-2-yl)-2H-tetrazol-2-yl)methyl)-N-hydroxybenzamide] | 68 | 96 | 592 |  | > 10000 | 4 | 4 | 94
CN(C)c1cccc(-c2nnc(Sc3ccc(C(=O)NO)cc3)n2C)c1 [comp. 77, 4-[[5-[3-(dimethylamino)phenyl]-4-methyl-1,2,4-triazol-3-yl]sulfanyl]benzenecarbohydroxamic acid] | 40 |  | 1730 |  | 2000 | 17 | 17 | 
O=C(NO)c1cc(F)c(Cn2nnc(-c3scc4c3OCCO4)n2)c(F)c1 [comp. 79, 4-[[5-(2,3-dihydrothieno[3,4-b][1,4]dioxin-5-yl)tetrazol-2-yl]methyl]-3,5-difluoro-benzenecarbohydroxamic acid] | 73 | 99 | 514 |  | 3000 | 8 | 8 | 
Cc1cc(-c2nnc(Sc3ccc(C(=O)NO)cc3)n2C)nn1C [comp. 85, 4-[[5-(1,5-dimethylpyrazol-3-yl)-4-methyl-1,2,4-triazol-3-yl]sulfanyl]benzenecarbohydroxamic acid] | 75 | 76 | 452 |  | 2000 | 5 | 5 | 
Cn1c(Sc2c(F)cc(C(=O)NO)cc2F)nnc1C(c1ccccc1)c1ccccc1 [comp. 98, 4-[(5-benzhydryl-4-methyl-1,2,4-triazol-3-yl)sulfanyl]-3,5-difluoro-benzenecarbohydroxamic acid] | 88 | 89 | 844 |  |  | 61 | 61 | 
